Data on nine compounds can be found in US10246429B2, “Vinyl fluoride cyclopropyl fused thiazin-2-amine compounds as beta-secretase inhibitors and methods of use” (AMGEN INC., priority 2015, dated 2019).

The target in one test is BACE2 (Homo sapiens (Human), UniProt Q9Y5Z0). The experiment in a line: In vitro enzymatic BACE2 FRET assay. The test is classed as biochemical. Particulars: read-out: IC50 IP (μM) BACE2 Enzyme.
The target in a further test is Cathepsin D (CatD) (Homo sapiens (Human), UniProt P07339). Description: CatD assay. Particulars: read-out: IC50 IP (μM) CatD. The test is classed as biochemical.
Chain of Cathepsin D (CatD) (P07339 65-412, species assumed): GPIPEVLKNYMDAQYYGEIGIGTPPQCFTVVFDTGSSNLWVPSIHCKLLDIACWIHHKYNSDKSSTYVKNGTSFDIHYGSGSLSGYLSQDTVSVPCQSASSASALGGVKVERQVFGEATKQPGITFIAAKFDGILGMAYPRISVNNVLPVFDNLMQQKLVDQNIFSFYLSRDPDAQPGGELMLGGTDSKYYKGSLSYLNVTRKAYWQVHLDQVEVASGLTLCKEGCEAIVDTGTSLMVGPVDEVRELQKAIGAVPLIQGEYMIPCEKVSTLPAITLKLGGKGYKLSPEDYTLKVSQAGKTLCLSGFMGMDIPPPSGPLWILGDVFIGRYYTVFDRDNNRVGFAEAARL

Chain of BACE2 (Q9Y5Z0 63-518): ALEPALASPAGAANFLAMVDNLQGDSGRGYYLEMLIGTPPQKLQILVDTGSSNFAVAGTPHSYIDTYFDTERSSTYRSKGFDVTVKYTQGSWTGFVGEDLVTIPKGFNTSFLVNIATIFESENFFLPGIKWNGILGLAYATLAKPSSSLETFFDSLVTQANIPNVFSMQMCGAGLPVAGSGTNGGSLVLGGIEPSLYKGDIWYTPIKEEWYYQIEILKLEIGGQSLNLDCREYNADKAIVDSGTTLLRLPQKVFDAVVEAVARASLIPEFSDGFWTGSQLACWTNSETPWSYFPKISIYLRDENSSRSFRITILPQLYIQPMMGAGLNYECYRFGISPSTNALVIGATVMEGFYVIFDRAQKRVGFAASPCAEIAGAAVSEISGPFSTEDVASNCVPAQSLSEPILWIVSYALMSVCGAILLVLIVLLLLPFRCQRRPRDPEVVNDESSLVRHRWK
Text for BACE2: In Vitro Enzymatic BACE1 and BACE2 FRET (Fluorescence Resonance Energy Transfer) Assays (Enzyme Assay Data in Table 1)

In the case of `C[C@@]1(O)CCN(C(=O)[C@]23C[C@H]2[C@@](C)(c2cc(/C=C(\F)c4ccc(C#N)cn4)ccc2F)N=C(N)S3)C1` (single isomer, unassigned) [Example 310], the IC50 (as a rule, the point on the concentration scale where inhibition reaches its midpoint) is 0.041 µM at BACE2 and 434 µM at Cathepsin D (CatD). As for `COC(=O)[C@]12C[C@H]1[C@@](C)(c1cc(/C=C(\F)c3ccc(Br)cn3)ccc1F)N=C(N)S2` [Example 105, (1S,5S,6S)-methyl 3-amino-5-(5-((Z)-2-(5-bromopyridin-2-yl)-2-fluorovinyl)-2-fluorophenyl)-5-methyl-2-thia-4-azabicyclo[4.1.0]hept-3-ene-1-carboxylate], the figures for the 50% inhibitory concentration (IC50) at BACE2 and at Cathepsin D (CatD) were 0.127 µM and 302 µM, respectively. `COC(=O)[C@]12C[C@H]1[C@@](C)(c1cc(/C=C(\F)c3ccc(Cl)cn3)ccc1F)N=C(N)S2` [Example 111, (1S,5S,6S)-methyl 3-amino-5-(5-((Z)-2-(5-chloropyridin-2-yl)-2-fluorovinyl)-2-fluorophenyl)-5-methyl-2-thia-4-azabicyclo[4.1.0]hept-3-ene-1-carboxylate]: the IC50 at BACE2 came to 0.102 µM; on Cathepsin D (CatD) it was 734 µM. Take `C[C@]1(c2cc(/C=C(\F)c3ccc(Cl)cn3)ccc2F)N=C(N)S[C@@]2(C(=O)N3CCC3)C[C@H]21` [Example 112, ((1S,5S,6S)-3-amino-5-(5-((Z)-2-(5-chloropyridin-2-yl)-2-fluorovinyl)-2-fluorophenyl)-5-methyl-2-thia-4-azabicyclo[4.1.0]hept-3-en-1-yl)(azetidin-1-yl)methanone]: the IC50 on Cathepsin D (CatD) was 97.6 µM. In the case of `C[C@]1(c2cc(/C=C(\F)c3ccc(Cl)cn3)ccc2F)N=C(N)S[C@@]2(CO)C[C@H]21` [Example 113, ((1S,5S,6S)-3-amino-5-(5-((Z)-2-(5-chloropyridin-2-yl)-2-fluorovinyl)-2-fluorophenyl)-5-methyl-2-thia-4-azabicyclo[4.1.0]hept-3-en-1-yl)methanol], the values for the IC50 at BACE2 and on Cathepsin D (CatD) were 0.0339 µM and 400 µM, respectively.

On to `CC(O)CCNC(=O)[C@]12C[C@H]1[C@@](C)(c1cc(/C=C(\F)c3ccc(Cl)cn3)ccc1F)N=C(N)S2` (stereo partly drawn) [Example 115, (1S,5S,6S)-3-amino-5-(5-((Z)-2-(5-chloropyridin-2-yl)-2-fluorovinyl)-2-fluorophenyl)-N-(3-hydroxybutyl)-5-methyl-2-thia-4-azabicyclo[4.1.0]hept-3-ene-1-carboxamide], for which, at Cathepsin D (CatD), the half-maximal inhibitory concentration (IC50) was found to be 57.6 µM.

In the case of `COC[C@@H]1CCCN1C(=O)[C@]12C[C@H]1[C@@](C)(c1cc(/C=C(\F)c3ccc(Cl)cn3)ccc1F)N=C(N)S2` [Example 117, ((1S,5S,6S)-3-amino-5-(5-((Z)-2-(5-chloropyridin-2-yl)-2-fluorovinyl)-2-fluorophenyl)-5-methyl-2-thia-4-azabicyclo[4.1.0]hept-3-en-1-yl)((S)-2-(methoxymethyl)pyrrolidin-1-yl)methanone], the results for the concentration for half-maximal inhibition (IC50) at BACE2 and at Cathepsin D (CatD) were 0.0209 µM and 166 µM, respectively.

As to `CNC(=O)[C@]12C[C@H]1[C@@](C)(c1cc(/C=C(\F)c3cnc(OCC(F)(F)C(F)F)cn3)ccc1F)N=C(N)S2` [Example 161, (1S,5S,6S)-3-amino-5-(2-fluoro-5-((Z)-2-fluoro-2-(5-(2,2,3,3-tetrafluoropropoxy)pyrazin-2-yl)vinyl)phenyl)-N,5-dimethyl-2-thia-4-azabicyclo[4.1.0]hept-3-ene-1-carboxamide], the IC50 at BACE2 was 0.755 µM. Same read-out and setting: then `C#Cc1cnc(/C(F)=C/c2ccc(F)c([C@@]3(C)N=C(N)S[C@@]4(C(=O)NC)C[C@H]43)c2)cn1` [Example 167, (1S,5S,6S)-3-amino-5-(5-((Z)-2-(5-ethynylpyrazin-2-yl)-2-fluorovinyl)-2-fluorophenyl)-N,5-dimethyl-2-thia-4-azabicyclo[4.1.0]hept-3-ene-1-carboxamide], with 0.16 µM.
